Data: patent US10406140B2, “5-substituted benzimidazole and 5-substituted azabenzimidazole derivative both having AMPK activation effect” (Shionogi & Co., Ltd., priority 2016, dated 2019)

Target: T1, Human AMPK α2ß2γ1 (Homo sapiens, UniProt O43741+P54646)
T1 construct: The full length cDNAs of human AMPK ß2 (NM_005399.3) and human AMPK α2 (NM_006252.3); The full length cDNAs of human AMPK ß2 (NM_005399.3); 6xHis (N); made in house; host or cells: Escherichia coli BL21 CodonPlus (DE3)-RIL
Assay: Test Example 2: activator evaluation on phosphorylated human AMPK α2ß2γ1 (mobility-shift assay, FL-Peptide 7)
Assay type: biochemical
Settings: human AMPK α2ß2γ1 pre-phosphorylated with CaMKK2; for EC150 (compound concentration showing 150% relative to the control (100%)): 25° C., 2 hours, 1% DMSO; for Emax: control without compound = 100%, read-out: Emax (maximum rate of increase in activity within the measurement range)
Protocol: The full length cDNAs of human AMPK ß2 (NM_005399.3) and human AMPK α2 (NM_006252.3) were inserted into the MCS1 and MCS2 of the pETDuet-1 vector to prepare a human AMPK ß2 and human AMPK α2 (6× His tag at the 5′ terminus) expressing plasmid. The plasmid was cotransfected with an expression plasmid, in which the full length cDNA of human AMPK γ1 (NM_002733.3) had been inserted into pET28b(+), into BL21 CodonPlus (DE3)-RIL to obtain an expression strain. The expression strain was cultured in TB medium, followed by induction with 0.5 mM IPTG, and cultured at 25° C. for 3 hours and then harvested.
Preparation method of human CaMKK2 used to impart activity to AMPK An expression vector, in which the full length cDNA of human CAMKK ß (NM_172226.1) had been inserted into pGEX-6P-3, was transfected into BL21 Star (DE3). The expression strain was cultured in TB medium, followed by induction with 0.5 mM IPTG, and cultured at 25° C. for 3 hours and then harvested.
Thus, phosphorylation treatment was carried out as pretreatment.
Human AMPK α2ß2γ1 in an amount to give a conversion rate of approximately 10% by reaction for 2 hours, and CaMKK2 in an amount capable of sufficiently imparting activity to AMPK for one hour were mixed in a buffer solution consisting of a 50 mM HEPES-NaOH buffer solution (pH 7.0), 100 mM NaCl, 5 mM magnesium chloride, 0.1% bovine serum albumin, 0.2 mM sodium orthovanadate(V), 1 mM ethylene glycol-bis(2-aminoethyl ether)-N,N,N′,N′-tetraacetic acid (EGTA), 5 mM disodium ß-glycerophosphate, 1 mM dithiothreitol and 0.2 mM ATP, and the resulting liquid was left to stand at 25° C. for 1 to 1.5 hours to sufficiently phosphorylate AMPK.
The resulting liquid was left to stand for 10 minutes.
The resulting liquid was allowed to react at 25° C. for 2 hours, and 10 μl of 20 mM EDTA was added thereto to stop the reaction.
To detect phosphorylated fluorescent substrates, the reaction mixture was applied to a measuring device, LabChip EZ Reader II manufactured by Caliper Life Science, Inc., for detecting fluorescence by using differences in mobility due to differences in charge. The setting conditions for the device were pressure, −1.5 PSI; upstream voltage, −2250 V; downstream voltage, −400 V; post sample buffer sip time, 40 seconds; final delay, 120 seconds; and peak order, Product First.
A conversion rate was calculated from the peak heights of the obtained substrate and product. The conversion rate when not containing a compound was used as a control, and a concentration dependent curve was made by plotting the rate of increase in activity to the control at each concentration of a compound.

T1 sequence (P54646 whole entry): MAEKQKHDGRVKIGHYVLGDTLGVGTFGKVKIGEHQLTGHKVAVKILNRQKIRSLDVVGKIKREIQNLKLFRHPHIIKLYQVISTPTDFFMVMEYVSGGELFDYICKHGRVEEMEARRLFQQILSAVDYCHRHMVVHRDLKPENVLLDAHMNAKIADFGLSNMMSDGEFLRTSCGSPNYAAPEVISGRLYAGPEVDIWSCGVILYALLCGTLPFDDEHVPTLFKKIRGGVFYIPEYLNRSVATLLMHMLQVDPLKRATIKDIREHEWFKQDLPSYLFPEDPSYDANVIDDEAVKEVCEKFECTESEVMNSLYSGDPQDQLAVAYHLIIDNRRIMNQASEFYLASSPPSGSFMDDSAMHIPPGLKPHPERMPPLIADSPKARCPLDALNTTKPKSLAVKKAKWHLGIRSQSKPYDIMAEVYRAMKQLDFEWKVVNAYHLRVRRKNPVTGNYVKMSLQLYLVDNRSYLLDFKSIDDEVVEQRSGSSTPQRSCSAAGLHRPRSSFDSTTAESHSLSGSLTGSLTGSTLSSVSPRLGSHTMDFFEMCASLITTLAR
T1 sequence (O43741 whole entry): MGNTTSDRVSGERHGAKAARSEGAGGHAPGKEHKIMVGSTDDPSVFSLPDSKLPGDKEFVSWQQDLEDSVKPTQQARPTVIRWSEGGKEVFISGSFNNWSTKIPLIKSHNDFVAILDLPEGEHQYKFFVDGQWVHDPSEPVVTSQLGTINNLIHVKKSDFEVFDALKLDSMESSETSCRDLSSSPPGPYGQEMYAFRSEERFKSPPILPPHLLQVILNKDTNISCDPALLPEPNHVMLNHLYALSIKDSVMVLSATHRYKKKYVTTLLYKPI
T1 sequence (P54619 whole entry partner): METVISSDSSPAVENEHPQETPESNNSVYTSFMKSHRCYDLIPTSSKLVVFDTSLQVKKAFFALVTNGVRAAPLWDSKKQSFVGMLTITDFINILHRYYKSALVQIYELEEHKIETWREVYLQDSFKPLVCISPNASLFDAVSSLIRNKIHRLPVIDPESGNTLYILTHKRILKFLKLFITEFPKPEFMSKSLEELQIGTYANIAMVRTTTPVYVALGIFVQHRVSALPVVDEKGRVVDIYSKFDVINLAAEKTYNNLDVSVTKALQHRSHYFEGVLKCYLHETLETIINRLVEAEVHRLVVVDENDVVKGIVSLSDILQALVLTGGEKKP

Row | SMILES | EC150 (compound concentration showing 150% relative to the control (100%)) [nM] | Emax [%]
1 | CS(C)(=O)=Nc1ccc(-c2ccc(-c3nc4nc(O[C@@H]5CO[C@H]6[C@@H]5OC[C@H]6O)[nH]c4cc3F)cc2)cc1 [Compound (I-1-2)] | 0.93 | 556
2 | CS(C)(=O)=Nc1ccc(-c2ccc(-c3nc4nc(OCCO)[nH]c4cc3Cl)cc2)cc1 [Compound (I-1-3)] | 19 | 235
3 | CC(=O)NC(C)(C)c1ccc(Oc2nc3nc(-c4ccc(-c5ccc(N=S(C)(C)=O)cc5)cc4)c(Cl)cc3[nH]2)cc1 [Compound (I-1-4)] | 3.8 | 364
4 | CS(C)(=O)=Nc1ccc(-c2ccc(-c3nc4nc(O[C@@H]5CO[C@H](CO)[C@H]5F)[nH]c4cc3Cl)cc2)cc1 [Compound (I-1-5)] | 1.4 | 539
5 | CS(C)(=O)=Nc1ccc(-c2ccc(-c3nc4nc(O[C@@H]5CO[C@H](CO)[C@@H]5F)[nH]c4cc3Cl)cc2)cc1 [Compound (I-1-6)] | 7.4 | 514
6 | CS(C)(=O)=Nc1ccc(-c2ccc(-c3nc4nc(O[C@@H]5CO[C@H](CO)C5(F)F)[nH]c4cc3Cl)cc2)cc1 [Compound (I-1-7)] | 2.1 | 504
7 | COC(=O)NC1CC=C(c2ccc(-c3nc4nc(O[C@@H]5CO[C@H](CO)[C@H]5F)[nH]c4cc3Cl)cc2)CC1 (some centres unmarked) [Compound (I-1-8)] | 21 | 412
8 | COC(=O)NC1CC=C(c2ccc(-c3nc4nc(O[C@@H]5CO[C@H](CO)C5(F)F)[nH]c4cc3Cl)cc2)CC1 (some centres unmarked) [Compound (I-1-9)] | 9.5 | 389
9 | CS(C)(=O)=Nc1ccc(-c2ccc(-c3nc4nc(O[C@@H]5CO[C@H](CO)[C@H]5F)[nH]c4cc3F)cc2)cc1 [Compound (I-1-10)] | 3.1 | 399
10 | CS(C)(=O)=Nc1ccc(-c2ccc(-c3nc4nc(O[C@@H]5CO[C@H](CO)C5(F)F)[nH]c4cc3F)cc2)cc1 [Compound (I-1-11)] | 1.1 | 601
11 | CNS(C)(=O)=Nc1ccc(-c2ccc(-c3nc4nc(O[C@@H]5CO[C@H](CO)C5(F)F)[nH]c4cc3Cl)cc2)cc1 (some centres unmarked) [Compound (I-1-12)] | 2.4 | 649
12 | CN=S(C)(=N)c1ccc(-c2ccc(-c3nc4nc(O[C@@H]5CO[C@H](CO)C5(F)F)[nH]c4cc3Cl)cc2)cc1 (some centres unmarked) [Compound (I-2-2)] | 3.1 | 604
13 | CS(C)(=O)=Nc1ccc(-c2ccc(-c3nc4nc(O[C@@H]5CO[C@H](CO)C5(F)F)[nH]c4cc3Cl)c(F)c2)cc1 [Compound (I-2-3)] | 4.2 | 609
14 | CS(C)(=O)=Nc1ccc(-c2ccc(-c3nc4nc(O[C@@H]5CO[C@H](CO)C5(F)F)[nH]c4cc3Cl)cc2)nc1 [Compound (I-2-4)] | 9.7 | 493
15 | CCS(=O)(CC)=Nc1ccc(-c2ccc(-c3nc4nc(O[C@@H]5CO[C@H](CO)C5(F)F)[nH]c4cc3Cl)cc2)cc1 [Compound (I-2-5)] | 6.2 | 575
16 | O=S1(=Nc2ccc(-c3ccc(-c4nc5nc(O[C@@H]6CO[C@H](CO)C6(F)F)[nH]c5cc4Cl)cc3)cc2)CCOCC1 [Compound (I-2-6)] | 3.0 | 578
17 | CS(C)(=O)=Nc1ccc(-c2ccc(-c3nc4nc(O[C@@H]5CO[C@H](CO)C5(F)F)[nH]c4cc3F)cc2)nc1 [Compound (I-2-7)] | 3.1 | 445
18 | CS(C)(=O)=Nc1ccc(-c2ccc(-c3nc4nc(O[C@@H]5CO[C@H](CO)C5(F)F)[nH]c4cc3F)c(F)c2)cc1 [Compound (I-2-8)] | 0.75 | 619
19 | CS(C)(=O)=NC1CC=C(c2ccc(-c3nc4nc(O[C@@H]5CO[C@H](CO)C5(F)F)[nH]c4cc3Cl)cc2)CC1 (some centres unmarked) [Compound (I-2-9)] | 1.3 | 652
20 | CS(C)(=O)=NC1CC=C(c2ccc(-c3nc4nc(O[C@@H]5CO[C@H](CO)C5(F)F)[nH]c4cc3F)cc2)CC1 (some centres unmarked) [Compound (I-2-10)] | 2.1 | 604
21 | CN=S(C)(=N)c1ccc(-c2ccc(-c3nc4nc(O[C@@H]5CO[C@H](CO)C5(F)F)[nH]c4cc3F)cc2)cc1 (some centres unmarked) [Compound (I-2-11)] | 1.2 | 649
22 | CCS(=O)(CC)=Nc1ccc(-c2ccc(-c3nc4nc(O[C@@H]5CO[C@H](CO)C5(F)F)[nH]c4cc3F)cc2)cc1 [Compound (I-2-12)] | 0.54 | 595
